Measured values as given in article PMC7687371, “Quantitative in Vitro to in Vivo Extrapolation (QIVIVE) for Predicting Reduced Anogenital Distance Produced by Anti-Androgenic Pesticides in a Rodent Model for Male Reproductive Disorders” (Environmental Health Perspectives, 2020).
pIC50: −log10 of the molar value. Like-named read-outs stand apart in the source and are kept apart here. Marks after values point to notes of the source that are not given here.

Experiments:
[1] = test system: pregnant dams and pups; conditions: ref EFSA's Draft Assessment Reports (DARs); cited from earlier work
[2] = test system: Wistar rats; conditions: rat, in vivo
[3] = test system: Sprague-Dawley rats; assay: In vivo Study 4 (dimethomorph follow-up), reproductive/developmental toxicity, AGD
[4] = cited from earlier work
[5] = target: T1, androgen receptor (AR) (Homo sapiens, UniProt P10275); set-up: method as in Orton et al. (2011); conditions: ref Orton et al. (2011), cited from earlier work
T1 construct: host or cells: AR-EcoScreen cells
T1 sequence (P10275 1-920): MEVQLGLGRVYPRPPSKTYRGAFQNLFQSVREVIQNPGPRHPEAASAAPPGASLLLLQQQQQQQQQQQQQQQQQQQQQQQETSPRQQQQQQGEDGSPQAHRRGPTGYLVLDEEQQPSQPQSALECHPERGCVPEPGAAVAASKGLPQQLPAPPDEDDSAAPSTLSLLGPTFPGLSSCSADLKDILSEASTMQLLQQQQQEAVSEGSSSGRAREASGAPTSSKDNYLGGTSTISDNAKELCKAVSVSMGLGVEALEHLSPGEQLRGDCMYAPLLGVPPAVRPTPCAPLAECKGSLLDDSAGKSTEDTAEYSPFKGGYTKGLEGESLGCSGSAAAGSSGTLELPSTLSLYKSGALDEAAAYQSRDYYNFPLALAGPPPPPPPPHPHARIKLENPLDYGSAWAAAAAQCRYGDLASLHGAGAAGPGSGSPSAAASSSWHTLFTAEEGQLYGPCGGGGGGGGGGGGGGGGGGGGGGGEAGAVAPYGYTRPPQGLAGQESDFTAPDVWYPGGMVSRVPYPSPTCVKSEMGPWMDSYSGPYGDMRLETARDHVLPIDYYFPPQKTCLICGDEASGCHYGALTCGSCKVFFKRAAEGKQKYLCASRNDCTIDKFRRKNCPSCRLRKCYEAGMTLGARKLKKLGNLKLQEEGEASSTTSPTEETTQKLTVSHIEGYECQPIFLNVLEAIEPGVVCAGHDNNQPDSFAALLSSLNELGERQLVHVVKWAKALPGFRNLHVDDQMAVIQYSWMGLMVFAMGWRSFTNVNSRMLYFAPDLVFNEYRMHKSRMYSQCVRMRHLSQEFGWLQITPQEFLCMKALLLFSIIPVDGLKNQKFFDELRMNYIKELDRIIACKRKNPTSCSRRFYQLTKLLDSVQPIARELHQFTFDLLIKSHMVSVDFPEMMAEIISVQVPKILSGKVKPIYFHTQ

[6] = PBK model simulation of fetal and maternal concentrations; set-up: species or system rat
[7] = test system: Wistar rats; assay: In vivo Study 3 (fludioxonil, cyprodinil, dimethomorph), reproductive/developmental toxicity, AGD; conditions: for AGDI mean: Study 3, male pups
[8] = test system: Wistar rats; conditions: male, rat, in vivo, 40 mg/kg/day
Protocol: In total, four in vivo exposure studies were conducted with pesticide exposures to pregnant rats during gestation and lactation to the selected compound (Table 2). […] For one selected dose of each compound, the internal body concentrations in dams and fetuses were determined by cesarean section at GD21. Due to the study outcomes from the third study, we conducted a fourth follow-up study on dimethomorph (Study 4).
Pup weights and AGD were measured after birth at PD1 using a stereomicroscope with a micrometer eyepiece and were determined as the distance between the genital papilla and the anus. To discriminate between an anti-androgenic effect and stunted growth, the AGD index (AGDI) was calculated by dividing AGD by the cube root of the BW (as described by [Hass et al. 2007]). The estimation of AGDI effect doses by regression modeling required a standardized AGDI scale. Therefore, we normalized the AGDI values in relation to the dynamic range spanned by the mean AGDI of the male and the female controls as (38) normalized AGDI=mean(AGDI of male controls)−AGDI(exposed animal)/mean(AGDI of male controls)−mean(AGDI of female controls).

COc1ccc(C(=CC(=O)N2CCOCC2)c2ccc(Cl)cc2)cc1OC [Dimethomorph, dimethomorph]
Critical toxicity [1]: Reduced maternal and pup body weight, reduced gestation length
LOAEL (mg/kg bw) [1]: 67 mg/kg bw
NOAEL (mg/kg bw) [1]: 20 mg/kg bw
Shortening of AGDI compared with male controls (normalized AGDI scale) ([2]; male, Wistar (HanTac:WH)): around 10%
AGDI mean ([2]; male, Wistar, 20 mg/kg): 2.01
AGDI reduction (%) ([2]; male, Wistar, 20 mg/kg/day): 13%
AGDI mean ([2]; male, Wistar, 60 mg/kg): 2.16
Nipple retention at PD14, statistics in words [2]: no statistically significant effects on nipple retention
% perinatal loss ([3]; 20 mg/kg/bw): 3.5 ± 6.3%
% postimplantation loss ([3]; 20 mg/kg/bw): 2.6 ± 4.9%
% postnatal deaths ([3]; 20 mg/kg/bw): 1.6 ± 3.7%
AGD females (mm) ([3]; 20 mg/kg/bw): 2.0 ± 0.1 mm
AGD females (units) ([3]; 20 mg/kg/bw): 12.4 ± 0.8 units
AGD index females ([3]; 20 mg/kg/bw): 1.1 ± 0.1
AGD index males ([3]; 20 mg/kg/bw): 1.94 ± 0.1
AGD males (mm) ([3]; 20 mg/kg/bw): 3.74 ± 0.2 mm
% perinatal loss ([3]; 60 mg/kg/bw): 5.7 ± 6.0%
% postimplantation loss ([3]; 60 mg/kg/bw): 4.3 ± 5.2%
% postnatal deaths ([3]; 60 mg/kg/bw): 1.4 ± 3.1%
AGD females (mm) ([3]; 60 mg/kg/bw): 1.9 ± 0.1 mm
AGD females (units) ([3]; 60 mg/kg/bw): 11.8 ± 0.6 units
AGD index females ([3]; 60 mg/kg/bw): 1.0 ± 0.0
AGD index males ([3]; 60 mg/kg/bw): 1.87 ± 0.1
AGD males (mm) ([3]; 60 mg/kg/bw): 3.51 ± 0.2 mm
Maternal toxicity ([3]; 180 mg/kg per day, increased postimplantation and perinatal loss, higher postnatal death rate): indications for a mild maternal toxicity
% perinatal loss ([3]; 180 mg/kg/bw): 13.3 ± 11.8%
% postimplantation loss ([3]; 180 mg/kg/bw): 10.1 ± 12.6%
% postnatal deaths ([3]; 180 mg/kg/bw): 3.2 ± 7.2%
AGD females (mm) ([3]; 180 mg/kg/bw): 2.0 ± 0.2 mm
AGD females (units) ([3]; 180 mg/kg/bw): 12.1 ± 0.9 units
AGD index females ([3]; 180 mg/kg/bw): 1.1 ± 0.0
AGD index males ([3]; 180 mg/kg/bw): 1.90 ± 0.11
AGD males (mm) ([3]; 180 mg/kg/bw): 3.57 ± 0.2 mm
Unbound plasma fraction (%) ([4]; plasma): 9.4^g %
pIC50 ([5]; read-out: AR antagonism (IC50), MDA-kb2 cells): 6.05
IC20 ([5]; read-out: AR antagonism (IC20 µM)): 300 nM
Ratio between observation and prediction (fetal and dams' plasma concentrations) ([6]; GD21 measurements vs PBK simulations): 0.5 to 2
Predicted maternal plasma level relative to analytically determined concentration ([6]; dams, GD21): approximately one-tenth
% postnatal deaths ([7]; 20 mg/kg bw/day): 1.4 ± 3.8%
AGD index females ([7]; 20 mg/kg bw/day): 1.12 ± 0.03
AGD index males ([7]; 20 mg/kg bw/day): 2.01 ± 0.04
% postnatal deaths ([7]; 60 mg/kg bw/day): 2.6 ± 4.1%
AGD index females ([7]; 60 mg/kg bw/day): 1.18 ± 0.05
AGD index males ([7]; 60 mg/kg bw/day): 2.15 ± 0.08

N#Cc1c[nH]cc1-c1cccc2c1OC(F)(F)O2 [Fludioxonil, fludioxonil]
Critical toxicity [1]: Reduced maternal and pup BW
LOAEL (mg/kg bw) [1]: 212 mg/kg bw
NOAEL (mg/kg bw) [1]: 21 mg/kg bw
Unbound plasma fraction (%) ([4]; ref Wetmore et al. (2012)): 0.5^g %
% perinatal loss ([7]; 20 mg/kg bw/day): 11.5 ± 11.9%
% postimplantation loss ([7]; 20 mg/kg bw/day): 8.4 ± 10.2%
% postnatal deaths ([7]; 20 mg/kg bw/day): 3.1 ± 9.7%
%males ([7]; 20 mg/kg bw/day): 54.8 ± 15.6%
AGD females (mm) ([7]; 20 mg/kg bw/day): 2.15 ± 0.09 mm
AGD females (units) ([7]; 20 mg/kg bw/day): 13.04 ± 0.5 units
AGD males (mm) ([7]; 20 mg/kg bw/day): 3.84 ± 0.12 mm
AGD males (units) ([7]; 20 mg/kg bw/day): 23.26 ± 0.7 units
Dam bw gain PD 1-14 ([7]; 20 mg/kg bw/day): 33.1 ± 12.7
Dam bw gain, GD7- PD 1 ([7]; 20 mg/kg bw/day): 23.8 ± 10.5
Dam bw gain,GD7-21 ([7]; 20 mg/kg bw/day): 92.7 ± 15.8
Female birth weight ([7]; 20 mg/kg bw/day): 6.21 ± 0.5
Gestation length ([7]; 20 mg/kg bw/day): 23.0 ± 0.0 days
Litter size ([7]; 20 mg/kg bw/day): 10.5 ± 2.4
Male birth weight ([7]; 20 mg/kg bw/day): 6.48 ± 0.4
Male weights PD 23 ([7]; 20 mg/kg bw/day): 48.66 ± 6.1
Nipple retention females ([7]; 20 mg/kg bw/day): 12.21 ± 0.2
Nipple retention males ([7]; 20 mg/kg bw/day): 0.04 ± 0.09
Offspring weight PD 6 ([7]; 20 mg/kg bw/day): 12.98 ± 1.3
Offspring weight PD 14 ([7]; 20 mg/kg bw/day): 28.07 ± 3.3
% perinatal loss ([7]; 60 mg/kg bw/day): 18.7 ± 32.5%
% postimplantation loss ([7]; 60 mg/kg bw/day): 15.9 ± 32.1%
% postnatal deaths ([7]; 60 mg/kg bw/day): 3.4 ± 9.6%
%males ([7]; 60 mg/kg bw/day): 47.2 ± 14.5%
AGD females (mm) ([7]; 60 mg/kg bw/day): 2.10 ± 0.11 mm
AGD females (units) ([7]; 60 mg/kg bw/day): 12.70 ± 0.6 units
AGD males (mm) ([7]; 60 mg/kg bw/day): 3.77 ± 0.16 mm
AGD males (units) ([7]; 60 mg/kg bw/day): 22.83 ± 1.0 units
Dam bw gain PD 1-14 ([7]; 60 mg/kg bw/day): 38.1 ± 10.8
Dam bw gain, GD7- PD 1 ([7]; 60 mg/kg bw/day): 16.8 ± 8.1
Dam bw gain,GD7-21 ([7]; 60 mg/kg bw/day): 84.8 ± 9.7
Female birth weight ([7]; 60 mg/kg bw/day): 6.18 ± 0.3
Gestation length ([7]; 60 mg/kg bw/day): 23.0 ± 0.0 days
Litter size ([7]; 60 mg/kg bw/day): 11.0 ± 1.3
Male birth weight ([7]; 60 mg/kg bw/day): 6.58 ± 0.4
Male weights PD 23 ([7]; 60 mg/kg bw/day): 49.78 ± 6.9
Nipple retention females ([7]; 60 mg/kg bw/day): 12.13 ± 0.2
Nipple retention males ([7]; 60 mg/kg bw/day): 0.08 ± 0.16
Offspring weight PD 6 ([7]; 60 mg/kg bw/day): 13.20 ± 1.6
Offspring weight PD 14 ([7]; 60 mg/kg bw/day): 28.41 ± 4.2
% perinatal loss ([7]; 180 mg/kg bw/day): 32.3 ± 35.6%
% postimplantation loss ([7]; 180 mg/kg bw/day): 31.4 ± 36.0%
% postnatal deaths ([7]; 180 mg/kg bw/day): 1.1 ± 2.7%
%males ([7]; 180 mg/kg bw/day): 63.0 ± 20.8%
AGD females (mm) ([7]; 180 mg/kg bw/day): 2.15 ± 0.10 mm
AGD females (units) ([7]; 180 mg/kg bw/day): 13.04 ± 0.6 units
AGD males (mm) ([7]; 180 mg/kg bw/day): 3.81 ± 0.18 mm
AGD males (units) ([7]; 180 mg/kg bw/day): 23.11 ± 1.1 units
Dam bw gain PD 1-14 ([7]; 180 mg/kg bw/day): 23.2 ± 15.5
Dam bw gain, GD7- PD 1 ([7]; 180 mg/kg bw/day): 17.5 ± 14.9
Dam bw gain,GD7-21 ([7]; 180 mg/kg bw/day): 71.3 ± 20.7
Female birth weight ([7]; 180 mg/kg bw/day): 6.06 ± 0.5
Gestation length ([7]; 180 mg/kg bw/day): 22.8 ± 0.75 days
Litter size ([7]; 180 mg/kg bw/day): 8.2 ± 5.0
Male birth weight ([7]; 180 mg/kg bw/day): 6.51 ± 0.6
Male weights PD 23 ([7]; 180 mg/kg bw/day): 47.97 ± 5.6
Nipple retention females ([7]; 180 mg/kg bw/day): 12.41 ± 0.6
Nipple retention males ([7]; 180 mg/kg bw/day): 0.47 ± 0.78
Offspring weight PD 6 ([7]; 180 mg/kg bw/day): 12.54 ± 1.9
Offspring weight PD 14 ([7]; 180 mg/kg bw/day): 26.58 ± 4.1
Nipple retention at PD14, statistics in words ([7]; Study 3): no statistically significant effects on nipple retention
AGDI mean ([7]; dose 20 mg/kg BW): 2.06
AGDI mean ([7]; dose 60 mg/kg BW): 2.01
AGDI mean ([7]; dose 180 mg/kg BW): 2.06
AGDI reduction (%) ([7]; male offspring, normalized AGDI scale, dose 60 mg/kg BW per day): 13%

CC12CC1(C)C(=O)N(c1cc(Cl)cc(Cl)c1)C2=O (stereo not drawn) [Procymidone, procymidone, reference compound]
AGDI reduction (%) [8]: 34^d %
